Values quoted from earlier work as cited in US20200397766A1, “POROUS EMBOLIZATION MICROSPHERES COMPRISING DRUGS” (VAN RIJN BEHEER B.V., priority 2018, published 2020).

solubility in DMSO (DMSO): high solubility in DMSO
solubility in water (water): low solubility in water
SMILES: OCCN(CCO)c1nc(N2CCCCC2)c2nc(N(CCO)CCO)nc(N3CCCCC3)c2n1 [Dipyridamole, dipyridamole]
